From PubChem BioAssay (NCI) come the findings set out here.

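In this assay, cells in 96-well plates receive the compound at five concentrations for 48 hours. Endpoints are linearly interpolated between the surrounding concentrations. GI50 = concentration required for 50% inhibition of growth. Definition used: TGI = concentration required for complete inhibition of growth.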

Common to all, as to assay: NCI-60 cell line screen, 48 h
In test [1] the test system is OVCAR-8 ovarian.
In test [2] the test system is PC-3 prostate.
The subject of test [3] is SW-620 colon.
Test [4] concerns HCT-15 colon.
The subject of test [5] is BT-549 breast.
Test [6] has as its system ACHN renal.
For test [7], the system named is OVCAR-5 ovarian.
Test [8] has as its system KM12 colon.
Test [9] deals with UACC-257 melanoma.
For test [10], the system named is MCF7 breast.

On to `CC(=O)OC1CC2C(C)(C)CCC[C@]2(C)C2=C1C(O)=C(C(C)C)C(=O)C2=O` (stereo not given in full), for which the GI50 in test [1] is 2.14 µM; in test [2], 0.731 µM; in [3], 0.911 µM; in test [4], 0.351 µM; in test [5], 1.16 µM; in [6], 0.465 µM. The GI50 in [7] was 1.44 µM; in test [8], 0.644 µM; in test [9], 0.932 µM; in [10], 1.1 µM. The TGI is 14.5 µM in test [1]; 5.12 µM in test [2]; 2.92 µM in [3]; 2.04 µM in [4]; 3.34 µM in [5]; 1.66 µM in test [6]. The TGI turned out to be 3.79 µM in test [7], 2.15 µM in test [8], 3 µM in test [9] and 3.75 µM in test [10].
For the compound `Cc1ccc(S(=O)(=O)OCC(=O)Nc2ccc(C(=O)O)c(O)c2)cc1`, the GI50 is 30.3 µM in test [1]; 30.4 µM in test [2]; 43.7 µM in test [3]; 38.8 µM in test [4]; 71.6 µM in test [5]; 43.1 µM in test [6]. In addition, the GI50 in [7] was 46.5 µM; in test [8], 73.6 µM; in test [9], 36.7 µM; in [10] it was 23.9 µM. Also, the TGI was determined as 106 µM in test [1]; 131 µM in test [2]; 145 µM in test [3]; 155 µM in [4]; 206 µM in test [5]; 159 µM in [6]. Also, the TGI in [7] was found to be 105 µM; in test [8], 199 µM; in [9], 200 µM; in [10], 121 µM.
Turning to `Nc1c(C(=O)c2ccc(C#CCN3CCOCC3)cc2)cnn1-c1ccc(F)cc1`, the GI50 in test [1], in test [2], in test [3], in [4], in test [5] and in test [6] was over 25 µM throughout. The GI50 in test [7], in test [8], in test [9] and in test [10] was over 25 µM each time. Besides, the TGI in test [1], in [2], in test [3], in test [4], in test [5] and in test [6] was over 25 µM throughout. For the same compound, the TGI in [7], in [8], in test [9] and in [10] was over 25 µM in each case.
In the case of `CS(=O)(=O)O[C@H]1C(=O)N(c2cc3c4ccccc4ccc3c3ccccc23)[C@@H]1c1ccccn1`, the GI50 in test [1] was 0.712 µM; in test [2], 0.399 µM; in test [3], 0.401 µM; in test [4], 0.419 µM; in [5], 0.501 µM; in [6], 0.877 µM. For the same compound, the GI50 in test [7] is 0.711 µM; in test [8] it was 0.473 µM; in test [9], 16.9 µM; in test [10], 0.321 µM. The TGI was over 100 µM in test [1]; over 100 µM in test [2]; over 100 µM in test [3]; over 100 µM in [4]; 9.79 µM in test [5]; over 100 µM in [6]. Further, the TGI in test [7], in test [8], in [9] and in test [10] was over 100 µM throughout.
In the case of `O=C(Nc1ccn(C2CC(I)C(COC(c3ccccc3)(c3ccccc3)c3ccccc3)O2)c(=O)n1)c1ccccc1` (stereo not given), the TGI worked out at 13.1 µM in test [1]; 20.9 µM in test [2]; 21.5 µM in test [3]; 21.5 µM in test [4]; 67 µM in test [5]; 21.5 µM in [6]. Further, the TGI is over 21.5 µM in [7], 24 µM in test [8], 20.4 µM in [9] and over 31.6 µM in test [10].
For `CN1C(=O)/C(=C2\S/C(=N\c3nnc(-c4ccccc4)o3)NC2=O)c2ccccc21`, the GI50 in [1], in test [2], in test [3], in test [4], in [5] and in [6] was over 100 µM in each case. In addition, the GI50 in test [7] is over 100 µM; in test [8], over 100 µM; in [9], 34.4 µM; in [10] it was 91.9 µM. Further, the TGI in test [1], in test [2], in [3], in test [4], in [5] and in test [6] was over 100 µM in each case. For the same compound, the TGI in test [7], in test [8], in test [9] and in test [10] was over 100 µM each time.
With `CCNC(=O)Oc1ccc(/C(=C(\C)c2ccc(Cl)cc2)c2ccc(OCCN(CC)CC)cc2)cc1`, the GI50 is 9.25 µM in test [1]; 3.89 µM in test [2]; 2.02 µM in test [3]; 2.21 µM in test [4]; 5.33 µM in test [5]; 3.74 µM in test [6]. Moreover, the GI50 in [7] was 10.3 µM; in test [8] it was 4.22 µM; in test [9], 2.11 µM; in test [10], 1.13 µM. In addition, the TGI was found to be 29.1 µM in test [1]; 14.1 µM in test [2]; 4.23 µM in test [3]; 7.04 µM in test [4]; 18.5 µM in test [5]; 14.6 µM in [6]. Further, the TGI in test [7] turned out to be 23.1 µM; in test [8] it was 15.5 µM; in [9], 4.36 µM; in test [10], 10.9 µM.
For the compound `COc1ccc(/C(=C/c2ccc3ccccc3c2)c2nn[nH]n2)cc1OC`, the GI50 is 7.1 µM in [1]; 2.36 µM in test [2]; 1.36 µM in test [3]; 2.92 µM in test [4]; 10.9 µM in test [5]; 11.3 µM in [6]. The GI50 in [7] is 6.08 µM; in test [8] it was 2.79 µM; in [9], 56.6 µM; in test [10] it was 4.12 µM. For the same compound, the TGI in [1], in test [2], in test [3], in test [4], in [5] and in test [6] was over 100 µM throughout. Also, the TGI in test [7], in test [8], in test [9] and in [10] was over 100 µM in each case.
Regarding `Clc1ccc(-c2nc3c(-c4ccccc4)nc(-c4ccccc4)cn3c2-c2ccc(Cl)cc2)cc1`, the GI50 in test [1], in test [2], in test [3], in test [4], in test [5] and in test [6] was over 100 µM throughout. Moreover, the GI50 in [7], in test [8], in [9] and in test [10] was over 100 µM in each case. The TGI in test [1], in test [2], in test [3], in [4], in test [5] and in [6] was over 100 µM in each case. Further, the TGI in test [7], in test [8], in [9] and in test [10] was over 100 µM each time.
For the compound `CC(C)(C)[Si](C)(C)OC1[C@@H](O[Si](C)(C)C(C)(C)C)[C@@H](CNC(=O)NC(=O)NC(=O)CCl)O[C@H]1n1cnc2c(NC(=O)Nc3ccccc3)ncnc21` (stereo not given in full), the GI50 in test [1] was 0.955 µM; in test [2], 1.1 µM; in [3], 3.52 µM; in [4], 9.28 µM; in [5], 6.57 µM; in [6] it was 5.03 µM. Besides, the GI50 is 6.41 µM in [7], 1.84 µM in [8], 5.64 µM in test [9] and 3.76 µM in test [10]. For the same compound, the TGI in test [1] was 3.77 µM; in [2], 3.93 µM; in test [3], 11.6 µM; in test [4] it was 22.2 µM; in [5], 13.1 µM; in test [6], 12.2 µM. The TGI came out at 14.1 µM in [7], 6.12 µM in test [8], 13.2 µM in test [9] and 11.9 µM in test [10].
For the compound `O=C(COc1cccc(/C=C2\COc3ccccc3C2=O)c1)c1ccccc1`, the GI50 was 3.35 µM in test [1]; 2.11 µM in test [2]; 1.66 µM in test [3]; 1.85 µM in [4]; 5.3 µM in test [5]; 2.14 µM in test [6]. Moreover, the GI50 in test [7] was 2.8 µM; in test [8], 1.92 µM; in test [9] it was 6.03 µM; in test [10], 1.98 µM. In addition, the TGI in test [1] was found to be 11.2 µM; in [2], 5.16 µM; in [3], 3.83 µM; in [4], 4.45 µM; in test [5], 22.2 µM; in test [6], 5.18 µM. Further, the TGI in test [7] came to 7.23 µM; in test [8] it was 3.65 µM; in test [9], 18.6 µM; in [10] it was 4.27 µM.
Regarding `COC(=O)CC1C2(C)C3=C(C)C(c4ccoc4)CC3OC2C2OC(=O)C3(C)C=CC(=O)C1(C)C23` (stereo not given), the TGI in test [1] came to 5.44 µM; in test [2], 3.43 µM; in [3], 4.39 µM; in test [4] it was 3.15 µM; in test [5], 2.35 µM; in test [6], 2.52 µM. Also, the TGI in test [7] was 5.44 µM; in test [8] it was 3.55 µM; in test [9], 5.02 µM; in [10], 1.95 µM.
As to `Cc1cncc(-c2nc(NCCc3c[nH]c4ccccc34)c3ncn(C(C)C)c3n2)c1`, the GI50 was 4.6 µM in test [1]; 3.98 µM in test [2]; 3.48 µM in test [3]; 1.67 µM in [4]; 2.99 µM in test [5]; 3.76 µM in test [6]. In addition, the GI50 is 3.45 µM in [7], 3.36 µM in [8], 1.91 µM in [9] and 4.05 µM in [10]. The TGI is over 100 µM in [1]; 35.8 µM in test [2]; 15.1 µM in [3]; 3.82 µM in test [4]; 15 µM in test [5]; 13.5 µM in test [6]. The TGI came to 18.4 µM in test [7], 12.8 µM in test [8], 3.85 µM in [9] and 15.6 µM in [10].
For `NC(CP(=O)(O)O)C(=O)O` (stereo not given), the TGI in test [1], in test [2], in test [3], in [4], in test [5] and in test [6] was over 100 µM throughout. Further, the TGI in [7], in test [8], in test [9] and in test [10] was over 100 µM each time.
Turning to `CCOC(=O)C1=C(C)NC(C)=C(C(=O)OCCNC(=O)c2ccc(N=[N+]=[N-])cc2)C1c1ccccc1C(F)(F)F` (stereo not given), the TGI in [1] turned out to be 21.5 µM; in test [2] it was 21.5 µM; in test [3] it was 21.5 µM; in [4], 21.5 µM; in test [5] it was 68.2 µM; in test [6] it was 21.5 µM. The TGI in test [7] turned out to be 21.5 µM; in [8], 21.5 µM; in test [9] it was 21.5 µM; in [10], 12.2 µM.
For the compound `CS(=O)(=O)c1ccc2c(c1)C(=O)c1c-2n(CCCBr)c(=O)c2cc([N+](=O)[O-])ccc12`, the GI50 was 29.3 µM in test [1]; 9.94 µM in test [2]; 0.683 µM in test [3]; 48.9 µM in [4]; 26.7 µM in test [5]; 4.98 µM in [6]. In addition, the GI50 in test [7] is over 100 µM; in [8], over 100 µM; in test [9] it was 43.7 µM; in [10], 0.992 µM. The TGI in test [1], in [2], in test [3], in [4], in test [5] and in test [6] was over 100 µM in each case. Moreover, the TGI in test [7], in [8], in [9] and in [10] was over 100 µM in each case.
